The values below come from PMC6542528, “Identification, structure-activity relationship and in silico molecular docking analyses of five novel angiotensin I-converting enzyme (ACE)-inhibitory peptides from stone fish (Actinopyga lecanora) hydrolysates” (PLoS ONE, 2019).

No end group written: not given here.

The subject of one experiment is ACE. Also on record: method as in PMID 22224920. As to conditions: bromelain-generated peptide from Misgurnus anguillicaudatus tissue protein; cited from earlier work.
Experiment [1] concerns the target T1, angiotensin I-converting enzyme (from rabbit lung) (Oryctolagus cuniculus, UniProt P12822).
T1 construct: angiotensin I-converting enzyme (from rabbit lung); purchased Sigma Aldrich (St. Louis, Mo, USA); host or cells: rabbit lung (tissue-derived)
T1 sequence (P12822 34-1310): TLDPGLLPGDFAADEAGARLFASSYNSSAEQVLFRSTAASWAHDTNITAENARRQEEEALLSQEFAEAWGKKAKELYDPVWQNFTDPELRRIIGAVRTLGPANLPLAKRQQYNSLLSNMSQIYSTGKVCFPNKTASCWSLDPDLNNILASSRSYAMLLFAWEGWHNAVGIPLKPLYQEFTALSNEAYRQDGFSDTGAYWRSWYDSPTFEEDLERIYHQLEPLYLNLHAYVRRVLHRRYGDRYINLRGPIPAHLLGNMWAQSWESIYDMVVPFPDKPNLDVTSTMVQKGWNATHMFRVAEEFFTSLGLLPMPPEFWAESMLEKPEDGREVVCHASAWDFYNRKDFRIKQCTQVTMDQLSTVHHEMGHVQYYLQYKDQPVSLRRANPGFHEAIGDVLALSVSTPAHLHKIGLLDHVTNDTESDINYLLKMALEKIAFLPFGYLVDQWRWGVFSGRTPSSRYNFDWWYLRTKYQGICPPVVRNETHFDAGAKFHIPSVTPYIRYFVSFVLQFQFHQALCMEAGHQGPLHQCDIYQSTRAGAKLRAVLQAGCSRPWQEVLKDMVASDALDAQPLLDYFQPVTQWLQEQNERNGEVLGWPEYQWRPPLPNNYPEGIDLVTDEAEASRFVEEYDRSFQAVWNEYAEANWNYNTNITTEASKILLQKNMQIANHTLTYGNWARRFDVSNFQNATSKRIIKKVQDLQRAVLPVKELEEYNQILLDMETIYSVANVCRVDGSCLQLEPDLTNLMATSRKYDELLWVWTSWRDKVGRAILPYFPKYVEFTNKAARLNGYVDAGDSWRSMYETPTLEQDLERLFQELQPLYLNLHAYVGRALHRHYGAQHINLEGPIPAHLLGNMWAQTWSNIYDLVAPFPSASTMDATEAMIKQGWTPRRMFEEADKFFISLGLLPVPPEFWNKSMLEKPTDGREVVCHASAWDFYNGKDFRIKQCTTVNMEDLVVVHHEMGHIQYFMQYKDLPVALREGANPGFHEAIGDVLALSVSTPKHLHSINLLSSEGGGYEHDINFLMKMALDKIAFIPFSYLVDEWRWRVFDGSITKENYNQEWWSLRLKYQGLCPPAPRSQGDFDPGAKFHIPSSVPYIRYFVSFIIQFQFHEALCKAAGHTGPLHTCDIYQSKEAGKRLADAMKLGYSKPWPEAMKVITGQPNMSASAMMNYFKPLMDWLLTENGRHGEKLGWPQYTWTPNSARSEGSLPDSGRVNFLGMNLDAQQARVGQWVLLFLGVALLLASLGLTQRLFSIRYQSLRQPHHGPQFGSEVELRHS
Put plainly: ACE-inhibitory activity assay (HHL substrate, colorimetric at 410 nm) and IC50 determination. The format is biochemical. The following applies: mean ± SD, triplicate; for inhibition at 10000 µM: synthesized peptide at 10 mM; for IC50: synthesized peptide, non-linear regression. The protocol:
The peptides were chemically synthesized through solid phase synthesis for peptides ≥ 5 amino acids with a percentage purity of > 90% and supplied by Genscript (New Jersey, USA). The ACE-inhibitory activity was measured according to Jimsheena & Gowda with minor modifications. The Peptides stock solutions were diluted over ranges of concentration for each peptide. A 15 μL of the peptide was pre-incubated with 10 μL of ACE (100 mU/mL) at 37°C for 10 min. Then 50 μL of the 5 mM HHL substrate containing 0.30 M NaCl in 50 mM borate buffer pH 8.30 was added and the incubation was continued for the next 60 min. The reaction was stopped using 1 M HCl. Benzene sulfonyl chloride (BSC) and pyridine were then added at 75 μL and 150 μL, respectively and the amount of hippuric acid produced was quantified by the intensity of the yellow color produced in a microplate reader at 410 nm. The ACE-inhibitory activity of the peptides was then calculated from the average of three values as follows: ACE−inhibition(%)=[(AC−AS)/(AC−AB)]×100 (1)
Where AC means absorbance of control (where ACE and substrate were present), AS means absorbance of sample (where peptide, ACE and substrate were present), while AB means the absorbance of blank (where only substrate was present).

Broadly, the IC50 is the midpoint of a concentration-inhibition curve. As for “Ala-His-Leu-Leu (AHLL; printed: Ala-His-Leu-Leu)”, in the experiment on ACE, the IC50 was 18.200 ± 0.900 µg/mL.
As usually defined, the inhibition is how much of the control response was suppressed. A higher inhibition goes with strong suppression. For the substance EHPVL [Glu-His-Pro-Val-Leu], in experiment [1], 10000 µM produced 54.8 ± 2.17% inhibition and the IC50 came out at 1680 ± 46 µM.
For LAPPTM [Leu-Ala-Pro-Pro-Thr-Met], in that order: 72.4 ± 1.99% and 1310 ± 17 µM.
Taken in the same sequence, the figures for EVLIQ [Glu-Val-Leu-Ile-Gln] were 62.1 ± 2.15% and 1440 ± 17 µM.
Taken in the same sequence, the figures for ALGPQFY [Ala-Leu-Gly-Pro-Gln-Phe-Tyr] were 94.4 ± 2.05% and 12 ± 1 µM.
In experiment [1], KVPPKA [Lys-Val-Pro-Pro-Lys-Ala] registered an inhibition at 10000 µM of 81.4 ± 1.78% and an IC50 of 980 ± 4 µM.
